Measured values published in ChEMBL document CHEMBL3259750, “The antibacterial properties of sulfur containing flavonoids” (2014).
The source made the active and inactive calls. The calls are words filed in the database; no cut-off is given here.

Experiments:
Escherichia coli [1] = assay: Antibacterial activity against Escherichia coli ATCC 25922 assessed as diameter of growth inhibition zone at 0.25 mg/ml after 24 hrs by disk diffusion assay; type: functional; settings: for zone of inhibition at 250 µg/mL: ATCC 25922, 24 h, read-out: DIZ
Escherichia coli [2] = assay: Antibacterial activity against Escherichia coli ATCC 25922 assessed as diameter of growth inhibition zone at 1 mg/ml after 24 hrs by disk diffusion assay; type: functional; settings: for zone of inhibition at 1000 µg/mL: ATCC 25922, 24 h, read-out: DIZ
Staphylococcus aureus [3] = assay: Antibacterial activity against Staphylococcus aureus ATCC 25923 assessed as diameter of growth inhibition zone at 0.5 mg/ml after 24 hrs by disk diffusion assay; type: functional; settings: for zone of inhibition at 500 µg/mL: ATCC 25923, 24 h, read-out: DIZ
Escherichia coli [4] = assay: Antibacterial activity against Escherichia coli ATCC 25922 assessed as diameter of growth inhibition zone at 0.5 mg/ml after 24 hrs by disk diffusion assay; type: functional; settings: for zone of inhibition at 500 µg/mL: ATCC 25922, 24 h, read-out: DIZ
Escherichia coli [5] = assay: Antibacterial activity against Escherichia coli ATCC 25922 assessed as growth inhibition after 18 hrs by colorimetric microdilution technique; type: functional; settings: ATCC 25922, 18 h
Staphylococcus aureus [6] = assay: Antibacterial activity against Staphylococcus aureus ATCC 25923 assessed as diameter of growth inhibition zone at 1 mg/ml after 24 hrs by disk diffusion assay; type: functional; settings: for zone of inhibition at 1000 µg/mL: ATCC 25923, 24 h, read-out: DIZ
Staphylococcus aureus [7] = assay: Antibacterial activity against Staphylococcus aureus ATCC 25923 assessed as diameter of growth inhibition zone at 0.25 mg/ml after 24 hrs by disk diffusion assay; type: functional; settings: for zone of inhibition at 250 µg/mL: ATCC 25923, 24 h, read-out: DIZ
Staphylococcus aureus [8] = assay: Antibacterial activity against Staphylococcus aureus ATCC 25923 assessed as growth inhibition after 18 hrs by colorimetric microdilution technique; type: functional; settings: ATCC 25923, 18 h
Candida albicans = assay: Antifungal activity against Candida albicans ATCC 90028; type: functional, organism-based
Staphylococcus aureus [9] = assay: Antibacterial activity against Staphylococcus aureus ATCC 25923 assessed as diameter of growth inhibition zone at 10 ug/disk after 24 hrs by disk diffusion assay; type: functional, organism-based
Escherichia coli [10] = assay: Antibacterial activity against Escherichia coli ATCC 25922 assessed as diameter of growth inhibition zone at 10 ug/disk after 24 hrs by disk diffusion assay; type: functional, organism-based

## CCN(CC)[c+]1sc2c(s1)C(c1ccc(Cl)cc1)Oc1ccccc1-2.F[B-](F)(F)F (stereo not given)
Escherichia coli [1]
  diameter of the inhibition zone (DIZ): inactive
Escherichia coli [2]
  diameter of the inhibition zone (DIZ): inactive
Staphylococcus aureus [3]
  zone of inhibition at 500 µg/mL: 14.3 mm
Escherichia coli [4]
  diameter of the inhibition zone (DIZ): inactive
Escherichia coli [5]
  MIC: 62.5 µg/mL
Staphylococcus aureus [6]
  zone of inhibition at 1000 µg/mL: 16.3 mm
Staphylococcus aureus [7]
  zone of inhibition at 250 µg/mL: 7.33 mm
Staphylococcus aureus [8]
  MIC: 1.95 µg/mL
Candida albicans
  Activity: Active

## CCN(CC)[c+]1sc2c(s1)C(c1ccc(Cl)cc1)Oc1c(I)cc(I)cc1-2.[O-][Cl+3]([O-])([O-])[O-] (stereo not given)
Escherichia coli [1]
  zone of inhibition at 250 µg/mL: 7.66 mm
Escherichia coli [2]
  zone of inhibition at 1000 µg/mL: 9.33 mm
Staphylococcus aureus [3]
  zone of inhibition at 500 µg/mL: 14 mm
Escherichia coli [4]
  zone of inhibition at 500 µg/mL: 8.33 mm
Escherichia coli [5]
  MIC: 7.81 µg/mL
Staphylococcus aureus [6]
  zone of inhibition at 1000 µg/mL: 16.7 mm
Staphylococcus aureus [7]
  zone of inhibition at 250 µg/mL: 8.33 mm
Staphylococcus aureus [8]
  MIC: 1.95 µg/mL

## CCN(CC)[c+]1sc2c(s1)C(c1ccc(OC)cc1)Oc1ccc(Br)cc1-2.[O-][Cl+3]([O-])([O-])[O-] (stereo not given)
Escherichia coli [1]
  zone of inhibition at 250 µg/mL: 6.66 mm
Escherichia coli [2]
  zone of inhibition at 1000 µg/mL: 7.66 mm
Staphylococcus aureus [3]
  zone of inhibition at 500 µg/mL: 9.66 mm
Escherichia coli [4]
  zone of inhibition at 500 µg/mL: 7.33 mm
Escherichia coli [5]
  MIC: 125 µg/mL
Staphylococcus aureus [6]
  zone of inhibition at 1000 µg/mL: 13.7 mm
Staphylococcus aureus [7]
  zone of inhibition at 250 µg/mL: 7.66 mm
Staphylococcus aureus [8]
  MIC: 3.9 µg/mL

## CCN(CC)[c+]1sc2c(s1)C(c1ccc(OC)cc1)Oc1ccc(Br)cc1-2.F[B-](F)(F)F (stereo not given)
Escherichia coli [5]
  MIC: 125 µg/mL
Staphylococcus aureus [8]
  MIC: 1.95 µg/mL

## CCN(CC)[c+]1sc2c(s1)C(c1ccc(Cl)cc1)Oc1c(Br)cc(Br)cc1-2.F[B-](F)(F)F (stereo not given)
Escherichia coli [1]
  diameter of the inhibition zone (DIZ): inactive
Escherichia coli [2]
  zone of inhibition at 1000 µg/mL: 10.7 mm
Staphylococcus aureus [3]
  zone of inhibition at 500 µg/mL: 18.7 mm
Escherichia coli [4]
  diameter of the inhibition zone (DIZ): inactive
Escherichia coli [5]
  MIC: 7.81 µg/mL
Staphylococcus aureus [6]
  zone of inhibition at 1000 µg/mL: 21.3 mm
Staphylococcus aureus [7]
  zone of inhibition at 250 µg/mL: 17.7 mm
Staphylococcus aureus [8]
  MIC: 1.95 µg/mL
Candida albicans
  Activity: Active

## GENTAMICIN
Staphylococcus aureus [9]
  inhibition zone (IZ): 18.3 mm
Escherichia coli [10]
  inhibition zone (IZ): 15.8 mm

## CCN(CC)[c+]1sc2c(s1)C(c1ccc(Cl)cc1)Oc1ccc(Br)cc1-2.[O-][Cl+3]([O-])([O-])[O-] (stereo not given)
Escherichia coli [1]
  zone of inhibition at 250 µg/mL: 8.33 mm
Escherichia coli [2]
  zone of inhibition at 1000 µg/mL: 11.7 mm
Staphylococcus aureus [3]
  zone of inhibition at 500 µg/mL: 17.3 mm
Escherichia coli [4]
  zone of inhibition at 500 µg/mL: 10.7 mm
Escherichia coli [5]
  MIC: 3.9 µg/mL
Staphylococcus aureus [6]
  zone of inhibition at 1000 µg/mL: 20.3 mm
Staphylococcus aureus [7]
  zone of inhibition at 250 µg/mL: 15 mm
Staphylococcus aureus [8]
  MIC: 0.48 µg/mL

## CCN(CC)C(=S)SC1C(=O)c2cc(Br)cc(Br)c2OC1c1ccc(Cl)cc1 (stereo not given)
Escherichia coli [1]
  diameter of the inhibition zone (DIZ): inactive
Escherichia coli [2]
  diameter of the inhibition zone (DIZ): inactive
Staphylococcus aureus [3]
  diameter of the inhibition zone (DIZ): inactive
Escherichia coli [4]
  diameter of the inhibition zone (DIZ): inactive
Staphylococcus aureus [6]
  diameter of the inhibition zone (DIZ): inactive
Staphylococcus aureus [7]
  diameter of the inhibition zone (DIZ): inactive

## CCN(CC)C(=S)SC1C(=O)c2cc(Br)ccc2OC1c1ccc(OC)cc1 (mixture of isomers)
Escherichia coli [1]
  diameter of the inhibition zone (DIZ): inactive
Escherichia coli [2]
  diameter of the inhibition zone (DIZ): inactive
Staphylococcus aureus [3]
  diameter of the inhibition zone (DIZ): inactive
Escherichia coli [4]
  diameter of the inhibition zone (DIZ): inactive
Staphylococcus aureus [6]
  diameter of the inhibition zone (DIZ): inactive
Staphylococcus aureus [7]
  diameter of the inhibition zone (DIZ): inactive

## CCN(CC)[c+]1sc2c(s1)C(c1ccc(Cl)cc1)Oc1ccc(Br)cc1-2.F[B-](F)(F)F (stereo not given)
Escherichia coli [5]
  MIC: 3.9 µg/mL
Staphylococcus aureus [8]
  MIC: 0.48 µg/mL

## CCN(CC)[c+]1sc2c(s1)C(c1ccc(Cl)cc1)Oc1c(I)cc(I)cc1-2.F[B-](F)(F)F (stereo not given)
Escherichia coli [5]
  MIC: 15.6 µg/mL
Staphylococcus aureus [8]
  MIC: 0.97 µg/mL

## CCN(CC)C(=S)SC1C(=O)c2cc(I)cc(I)c2OC1c1ccc(Cl)cc1 (stereo not given)
Escherichia coli [1]
  diameter of the inhibition zone (DIZ): inactive
Escherichia coli [2]
  diameter of the inhibition zone (DIZ): inactive
Staphylococcus aureus [3]
  diameter of the inhibition zone (DIZ): inactive
Escherichia coli [4]
  diameter of the inhibition zone (DIZ): inactive
Staphylococcus aureus [6]
  diameter of the inhibition zone (DIZ): inactive
Staphylococcus aureus [7]
  diameter of the inhibition zone (DIZ): inactive

## CCN(CC)C(=S)SC1C(=O)c2cc(Br)ccc2OC1c1ccc(Cl)cc1 (stereo not given)
Escherichia coli [1]
  diameter of the inhibition zone (DIZ): inactive
Escherichia coli [2]
  diameter of the inhibition zone (DIZ): inactive
Staphylococcus aureus [3]
  diameter of the inhibition zone (DIZ): inactive
Escherichia coli [4]
  diameter of the inhibition zone (DIZ): inactive
Staphylococcus aureus [6]
  diameter of the inhibition zone (DIZ): inactive
Staphylococcus aureus [7]
  diameter of the inhibition zone (DIZ): inactive

## CCN(CC)C(=S)SC1C(=O)c2ccccc2OC1c1ccc(Cl)cc1 (mixture of isomers)
Escherichia coli [1]
  diameter of the inhibition zone (DIZ): inactive
Escherichia coli [2]
  diameter of the inhibition zone (DIZ): inactive
Staphylococcus aureus [3]
  diameter of the inhibition zone (DIZ): inactive
Escherichia coli [4]
  diameter of the inhibition zone (DIZ): inactive
Staphylococcus aureus [6]
  diameter of the inhibition zone (DIZ): inactive
Staphylococcus aureus [7]
  diameter of the inhibition zone (DIZ): inactive
